Assay results taken from patent US20070225339A1, “Compositions and methods for treating rheumatoid arthritis” (priority 2006, published 2007).
Entries after “also recorded” stand apart in the source; their conditions may differ. Values belong to the compound of their own block, whether it stands above or below them.

Tests used:
[1] = test system: subjects with unstable angina pectoris (UAP); test: Phase 2a study, safety and tolerability; type: in vivo, human; details: up to 40 mg/day for 5 days
Method: (§1) Five Phase 1 studies of VX-702 in healthy subjects and one Phase 2a study evaluating the safety and tolerability of VX-702 in subjects with unstable angina pectoris (UAP) who were scheduled for percutaneous coronary intervention with or without stenting were performed. Multiple dose studies of VX-702 were conducted for up to 28 days.

[2] = test system: subjects with moderate or severe RA; test: Safety evaluations in the twelve-week RA study (adverse events, laboratory, Holter, ECG); type: in vivo, human; details: for Mean increase in QTcF: end of treatment, baseline approximately 400 msec, placebo −0.6 msec
Method: VX-702 was examined in a randomized, placebo-controlled, multiple-dose, blinded, dose escalation study in 315 subjects with moderate or severe RA. Subjects were divided into 3 approximately equal-sized groups of 100-105 subjects each. In one group, subjects received 5 mg VX-702 once daily or 2.5 mg VX-702 twice daily (total 5 mg/day) for twelve weeks. Another group received 10 mg VX-702 once daily for twelve weeks. Another group subjects received placebo once daily for twelve weeks. Safety evaluations of subjects in the study were also conducted. These included physical examinations, including vital signs measurements (including blood pressure, heart rate, respiration rate, and temperature); clinical laboratory assessments (hematology, chemistry, and urinalysis testing); creatinine clearance; adverse events; Holter monitoring and electrocardiogram (ECG) (12-lead). Responses to treatment were evaluated by changes in ACR (e.g., ACR20) or EULAR criteria. Responses to treatment were measured at Weeks 2, 4, 6, 8, 10 and 12. Safety evaluations were also conducted at these time points. Holter monitoring and ECG were not performed at every time point. Four weeks after completion of the study, responses to treatment and safety evaluations were conducted on subjects.

[3] = test system: subjects with moderate or severe RA; test: Randomized, placebo-controlled, blinded twelve-week study in RA: responses to treatment (ACR, EULAR, DAS28); type: in vivo, human; details: for ACR 20 Response / EULAR Response (moderate or good) / Improvement from baseline in DAS28 / Mean reduction in morning stiffness / Percent Change in Swollen Joints / Percent Change in Tender Joints / Percent Improvement in DAS / Percent reduction in morning stiffness: End of Treatment (Week 12)
Method: VX-702 was examined in a randomized, placebo-controlled, multiple-dose, blinded, dose escalation study in 315 subjects with moderate or severe RA.
Subjects were divided into 3 approximately equal-sized groups of 100-105 subjects each. In one group, subjects received 5 mg VX-702 once daily or 2.5 mg VX-702 twice daily (total 5 mg/day) for twelve weeks. Another group received 10 mg VX-702 once daily for twelve weeks. Another group subjects received placebo once daily for twelve weeks.
The subjects had to be between the ages of 18-75 years (inclusive) and have active RA of six months of duration or longer by the ACR revised criteria. The subjects had to have a C-reactive protein (CRP) serum levels of greater than 2 mg/dL at time of randomization, a swollen joint count of eight or greater (of 28) and tender joint count of 10 or greater (of 28). The subjects had to have had no prior treatment with Disease modifying anti-rheumatic drugs (DMARD) therapy or inadequate response to DMARD therapy. If a subject had received prior therapy with an antibody or binding protein to TNF (anti-TNF) or with recombinant IL-1 receptor antagonist (IL-1Ra), the subject may have discontinued treatment due to tolerability reasons but not have discontinued treatment because of an inadequate response. Subjects must also have discontinued DMARD therapy (except for sulfasalazine or hydroxychloroquine) for at least one month prior to randomization. Subjects could receive one NSAID and/or prednisone (≦10 mg/day) if they had been treated at a stable dose for at least one month prior to randomization.
Responses to treatment were evaluated by changes in ACR (e.g., ACR20) or EULAR criteria. Responses to treatment were measured at Weeks 2, 4, 6, 8, 10 and 12. Safety evaluations were also conducted at these time points. Holter monitoring and ECG were not performed at every time point. Four weeks after completion of the study, responses to treatment and safety evaluations were conducted on subjects.
ACR Preliminary Definition of Improvement in RA (ACR20):
Required: ≧20% improvement in tender joint count • ≧20% improvement in swollen joint count And, at least 20% improvement in 3 of the following 5: • Subject pain assessment • Subject global assessment • Physician global assessment • Subject self-assessed disability
Acute-phase reactant (CRP or ESR)
The ACR50 and ACR70 responses require ≧50% and ≧70% improvement, respectively, in the same criteria as described for the ACR20 response.
EULAR is described in Fransen et al., Clinical and Experimental Rheumatology 23 (Suppl. 39): S93-99, 2005, which is hereby incorporated by reference in its entirety. EULAR is based on the Disease Activity Score (DAS), a clinical index of RA disease activity that combines information from swollen joints, tender joints, the acute phase response and general health into one continuous measure of rheumatoid inflammation. DAS28 is an index similar to the original DAS, consisting of a 28 tender joint count (range 0-28), a 28 swollen joint count (range 0-28), erythrocyte sedimentation rate (ESR) and an optional general health assessment on a visual analogue scale (range 0-100).

healthy subjects = test: Phase 1 studies, tolerability; type: in vivo, human
Method: as §1

Oral bioavailability = details: in vivo
patients with RA [4] = details: standard of care in patients with RA; cited from earlier work
patients with RA [5] = details: etanercept by injection in combination with methotrexate; cited from earlier work

Oral bioavailability (Oral bioavailability): orally bioavailable
Compound: NC(=O)c1ccc(N(C(N)=O)c2c(F)cccc2F)nc1-c1ccc(F)cc1F [VX-702]
Severity of adverse events [1]: mild to moderate severity
Premature discontinuations for adverse events, patients ([2]; 5 mg VX-702, twelve weeks): 3%
Mean increase in QTcF ([2]; 5 mg group): 3 ms
Premature discontinuations for adverse events, patients ([2]; 10 mg VX-702, twelve weeks): 5%
Mean increase in QTcF ([2]; 10 mg group): 6 ms
Effects on laboratory parameters, including liver function tests ([2]; 5 or 10 mg/day, twelve weeks): No clinically significant effects
Severity of adverse events ([2]; 5 or 10 mg/day, twelve weeks): generally mild to moderate; also recorded: generally rated mild or moderate
Tolerability ([2]; 5 or 10 mg/day, twelve weeks): well tolerated
Holter monitoring: ventricular ectopic activity and arrhythmias versus placebo ([2]; 24 to 72-hour continuous EKG, 6 times/patient): did not reveal an increased tendency for arrhythmias
Skin disorders (rash, acne, itching), patients ([2]; VX-702-treated patients): approximately 9%
Isolated serious adverse events, patients ([2]; VX-702-treated patients (5 and 10 mg groups)): 4-7%
Infections (upper respiratory infections, gastroenteritis, nasopharyngitis, etc), patients ([2]; VX-702-treated patients, placebo 5%): 10%
Gastrointestinal disorders (nausea, vomiting, diarrhea), patients ([2]; VX-702-treated patients, placebo 6%): 8%
Patients with maximal increase in QTcF of >60 msec ([2]; at any point in the study): No patient
Patients with ALT value above the upper limit of normal ([2]; at each on-treatment visit, placebo 1-2%): 2-4%
Patients discontinued for elevations in liver function tests ([2]; twelve weeks): No patients
Patients with ALT elevation to three times the upper limit of normal ([2]; twelve weeks): No patient
ACR 20 Response ([3]; 5 mg VX-702 per day): 36%
EULAR Response (moderate or good) ([3]; 5 mg VX-702 per day): 40%
Improvement from baseline in DAS28 ([3]; 5 mg VX-702 per day): −1.0
Mean reduction in morning stiffness ([3]; 5 mg VX-702 per day): -98 min
Percent Change in Swollen Joints ([3]; 5 mg VX-702 per day): −35%
Percent Change in Tender Joints ([3]; 5 mg VX-702 per day): −28%
Percent Improvement in DAS ([3]; 5 mg VX-702 per day): −15%
Percent reduction in morning stiffness ([3]; 5 mg VX-702 per day): −21.6%
EULAR Response (moderate or good) ([3]; 5 mg VX-702 per day, listed as 702): 40%
Symptoms of RA compared to placebo ([3]; 5 mg or 10 mg once daily for twelve weeks, Week 12): showed an improvement in their symptoms
ACR 20 Response ([3]; 10 mg VX-702 once daily): 40%
EULAR Response (moderate or good) ([3]; 10 mg VX-702 once daily): 44%
Improvement from baseline in DAS28 ([3]; 10 mg VX-702 once daily): −1.2
Mean reduction in morning stiffness ([3]; 10 mg VX-702 once daily): -82 min
Percent Change in Swollen Joints ([3]; 10 mg VX-702 once daily): −46%
Percent Change in Tender Joints ([3]; 10 mg VX-702 once daily): −36%
Percent Improvement in DAS ([3]; 10 mg VX-702 once daily): −18%
Percent reduction in morning stiffness ([3]; 10 mg VX-702 once daily): −2.7%
ACR20 response rates, dose-response ([3]; placebo, 5 mg, 10 mg, Jonckheere-Terpstra test, p=0.02): dose-dependent statistically significant increase
Severity of adverse events (healthy subjects; Phase 1, healthy subjects): mild or moderate severity
Tolerability (healthy subjects; dosages of up to 20 mg/day, multiple dose up to 28 days, healthy subjects): moderately to well tolerated

Compound: CN(Cc1cnc2nc(N)nc(N)c2n1)c1ccc(C(=O)N[C@@H](CCC(=O)O)C(=O)O)cc1 [methotrexate]
Response (improvement) often observed (patients with RA [4]): less than 50%

Compound: etanercept
Clinical remission rate (patients with RA [5]): 35%
